From patent publication US20240139162A1, “Benzophenanthridine Alkaloids and Their Methods of Use” (Chengdu Anticancer Bioscience, LTD., priority 2019, published 2024)
pIC50: −log10 of the molar value. “And” between values parts separate entries of the source, which are not always exact repeats. Equal entries are not always repeated. “Also recorded” adds a separate entry of the source. Where two headings read alike, the source gives them in different places.

Experiments:
Rat1A cells = experiment: IC50 in Rat1A cells (Table 2); assay type: cell-based
Procedure: (§1) Cells were split, plated in appropriate culture media and allowed to adhere. After 18 hours, corynoline and acetylcorynoline were added to a cell line selected from below. At 72 h or 96 h, MTT was added and at 75 h or 99 h, the A570 nm was recorded. The concentration ranged from 0.02 μM to 40 μM.
(§2) The following Rat1A cell lines were used in these studies: Rat1 A C, Rat1A MYC, Rat1A E2F1, and Rat1A E2F3. The cell line was then engineered as control (C), to overexpress the MYC oncogene (Rat1A-MYC), to overexpress the E2F1 oncogene (Rat1A-E2F1), or to overexpress the E2F3 oncogene (Rat1A-E2F3).
(§3) The effect of the compounds chelidonine and protopine on cell division was assessed similarly to corynoline and acetylcorynoline above. As described in Example 6 above, as cells enter and become arrested in mitosis, they detach from the plate surface and appear as rounded cells with a smooth surface membrane. RPE-MBC cells (ectopically expressing oncogenes MYC and Bcl2) were treated with DMSO, chelidonine and protopine, and compared against controls Michael's ketone (MK) and taxol.

3T3 MEF cells = experiment: IC50 in 3T3 MEF cells (Table 2); assay type: cell-based
Procedure: as §1, §3

RPE-MBH cells = experiment: IC50 in RPE-MBH cells (Table 1); assay type: cell-based, human
Procedure: as §1
(§4) The following RPE cell lines were used in these studies: RPE NEO, RPE MBH, RPE MBC, RPE MA, RPE MP, RPE MI, and RPE MYC Nick. This RPE series were derived from human retinal pigment epithelium and then stably transfected with an hTERT expression construct for immortalization. The resulting cell line was then engineered to overexpress the MYC oncogene (RPE-MYC) or a Neomycin selection marker gene (RPE-NEO). In RPE-MYC cells, a variety of other oncogenes such as Myr-AKT, BCL2, ID1 and PI3K^E45k were further introduced individually to generate the cell lines RPE MA, RPE MBC, RPE MI, RPE MP, respectively. As a control, H2BGFP was introduced into RPE-MYC cells to generate RPE MBH.
as §3

RPE-A19 cells = experiment: IC50 in RPE-A19 cells (Table 2); assay type: cell-based, human
Procedure: as §1, §3

RPE-Neo cells = experiment: IC50 in RPE-Neo cells (Table 2); assay type: cell-based, human
Procedure: as §1, §4, §3

RPE-MBC cells [1] = experiment: Mitotic arrest (cell round-up, phospho-Histone H3) and polyploidy (DAPI) assay; assay type: cell-based, human; conditions: for mitotic arrest: 24 hours after treatment; for polyploidy (DAPI staining): 48 hours after treatment; for persistence of the arrest of cells in mitosis: within 48-hour treatment
Procedure: (§5) For screening for bioactive fractions, cells were cultured in 96-well plates, and exposed to crude extracts, partially purified fractions or pure compounds at the concentrations indicated in the figure legends. Exposure was for 24 or 48 hours before analysis of cells for either an arrest in mitosis using an inverted microscope or for a change in DNA content after 4′,6′-diamidino-2-phenylindole (DAPI) staining by fluorescence microscopy.
(§6) Cells were cultured on coverslips in a 6-well plate, fixed with 4% paraformaldehyde and then permeabilized with 0.3% Triton X-100 in PBS. Primary antibody was detected with Texas-Red-conjugated secondary antibodies that were purchased from Jackson ImmunoResearch. After immunostaining, cells were mounted on microscope slides with 4′,6′-diamidino-2-phenylindole (DAPI)-containing Vectashield mounting solution (Vector Laboratories) for detection of fluorescence with an EVOS FL fluorescence microscope (ThermoFisher).
Cellular “round-up” was used as a surrogate marker for mitotic arrest and could easily be assayed using an inverted tissue culture microscope. […] Mitotic arrest was judged by cell round-up observed under an inverted tissue culture microscope 24 hours after exposing cells to the library.
As cells enter and become arrested in mitosis, they detach from the plate surface and appear as rounded cells with smooth surface membrane, distinct from detached cells that are undergoing programmed cell death. Simple visual screening method was used to assay thousands of extracts. […] To identify bioactive components that are able to interfere with mitosis, 3 kg of Corydalis longicalcarata rhizome were recollected and performed bioactivity-guided extraction, isolation, and purification. The air dried and powdered material was extracted with 70% ethanol assisted by exposure to ultrasonic waves.

IMR 90 cells = experiment: IC50 in IMR 90 cells (Table 2); assay type: cell-based; conditions: Homo sapiens, IMR-90, 72 h
Procedure: as §1, §3

RPE-MBC cells [2] = experiment: IC50 in RPE-MBC cells (Table 1); assay type: cell-based, human
Procedure: as §5, with “Retinal pigment epithelial cells transformed by ectopic MYC and Bcl-2 expression (RPE-MBC cells) have been described previously (e.g., Goga et al., 2007, Nat. Med., 13 (7):820-827) and were cultured in DMEM supplemented with 5% fetal bovine serum in a humidified incubator that was maintained at 5% CO2. For” for “For”
The RPE series were derived from human retinal pigment epithelium and then stably transfected with a hTERT expression construct for immortalization. The resulting cell line was then engineered to overexpress the MYC and BCL2 oncogenes, generating the RPE MBC cell line. This cell line mimics cancer cells that overexpress MYC and Bcl2, and readily forms viable polyploid cells when cytokinesis is prevented.
as §1, §3

RPE MBC cells = experiment: Spindle pole assembly by β-tubulin / Histone H3ser10P immunofluorescence; assay type: cell-based, human
Procedure: Microtubule assembly, specifically spindle pole assembly, was altered by treatment with acetylcorynoline. RPE MBC cells were treated with acetylcorynoline and Histone H3 Serine 10 Phosphorylation (Histone H3ser10p, shown in FIG. 4 and FIG. 5 in red), β-tubulin (green) and DNA (blue) was analyzed by immunofluorescence microscopy. Histone H3ser10P was used to determine the cells that were in early mitosis (e.g., prometaphase or metaphase). β-tubulin was used to examine microtubule localization and spindle assembly within the cells.
Similarly to corynoline and acetylcorynoline above, it was determined that microtubule assembly, specifically spindle pole assembly, was altered by treatment with chelidonine.

[3] = system: all tested cell lines (RPE, Rat1A and human cancer cell lines); experiment: MTT assay, IC50 across all of the cell lines tested; assay type: cell-based; conditions: for pIC50: Homo sapiens
aurora-B kinase = experiment: Phosphorylation of Histone 3 at Ser10 as surrogate of aurora-B kinase activity; assay type: cell-based
Procedure: as §6

[4] = system: RPE cell lines (RPE NEO, RPE MBH, RPE MBC, RPE MA, RPE MP, RPE MI, RPE MYC Nick); experiment: MTT assay, RPE cell lines expressing oncogenes; assay type: cell-based, human; conditions: RPE cell lines compared with RPE NEO control (FIG. 11)
[5] = system: Rat1A cell lines (Rat1A C, Rat1A MYC, Rat1A E2F1, Rat1A E2F3); experiment: MTT assay, Rat1A cell lines expressing oncogenes; assay type: cell-based; conditions: Rat1A cell lines compared to Rat1A C (FIG. 12)
Procedure: as §1, §2

[6] = system: all tested cell lines (RPE, Rat1A and human cancer cell lines); conditions: positive control, read-out: known IC50 value; cited from earlier work
[7] = 3T3 MEF, treatment 72 h, read-out: IC50
[8] = RPE-MBH, treatment 72 h, read-out: IC50
[9] = RPE-A19, treatment 72 h, read-out: IC50

SMILES: CN1Cc2c(ccc3c2OCO3)[C@@H]2[C@H]1c1cc3c(cc1C[C@@H]2O)OCO3 [Chelidonine, 5bR,6S,7,12bS,13,14-hexahydro-13-methyl-[1,3]benzodioxolo[5,6-c]-1,3-dioxolo[4,5-i]phenanthridin-6-ol]
- pIC50 (Rat1A cells; 72 h): 5.95
- pIC50 (3T3 MEF cells; Mus musculus, MEF, 72 h): 5.82
- pIC50 (RPE-MBH cells; Homo sapiens, 72 h): 5.63
- pIC50 (RPE-A19 cells; Homo sapiens, 72 h): 5.73
- pIC50 (RPE-Neo cells; Homo sapiens, 72 h): 5.95
- mitotic arrest (RPE-MBC cells [1]): Nearly all cells entered and arrested in mitosis
- polyploidy (DAPI staining) (RPE-MBC cells [1]): polyploidy was observed; also recorded: demonstrates polyploidy
- persistence of the arrest of cells in mitosis (RPE-MBC cells [1]): transient
- pIC50 (IMR 90 cells): 5.61
- pIC50 (RPE-MBC cells [2]; Homo sapiens, 72 h): < 4.40
- spindle formation (β-tubulin staining) (RPE MBC cells; 24 hours of treatment): multipolar spindles were formed; also recorded: multipolar spindle formation in mitosis
- centrosomes (β-tubulin staining) (RPE MBC cells; analyzed after 24 or 48 hours): centrosome amplification and centrosome declustering

SMILES: CN1Cc2c(ccc3c2OCO3)[C@@]2(C)[C@@H](O)Cc3cc4c(cc3[C@@H]12)OCO4 [Corynoline, (5bR)-5bα,13-Dimethyl-5bα,6,7,12bα,13,14-hexahydro[1,3]benzodioxolo[5,6-c]-1,3-dioxolo[4,5-i]phenanthridine-6β-ol]
- pIC50 (Rat1A cells; 72 h): 5.07
- pIC50 (3T3 MEF cells; Mus musculus, MEF, 72 h): 4.91
- pIC50 [3]: 4.51 to 6.00
- IC50 compared with the other compound ([3]; all different cell lines): lower than acetylcorynoline
- pIC50 (RPE-MBH cells; Homo sapiens, 72 h): 4.82
- pIC50 (RPE-A19 cells; Homo sapiens, 72 h): 4.97
- pIC50 (RPE-Neo cells; Homo sapiens, 72 h): 5.15
- mitotic arrest (RPE-MBC cells [1]): can arrest mitosis within 24 hours of treatment
- mitotic arrest (RPE-MBC cells [1]; listed as corynoline): Nearly all cells entered and arrested in mitosis
- polyploidy (DAPI staining) (RPE-MBC cells [1]): induce polyploidy at 48 hours
- polyploidy (DAPI staining) (RPE-MBC cells [1]; listed as corynoline): Polyploidy was observed; also recorded: demonstrates polyploidy
- mitotic arrest and polyploidy, dependence on concentration (RPE-MBC cells [1]; FIG. 15): concentration-dependent
- persistence of the arrest of cells in mitosis (RPE-MBC cells [1]): transient
- phosphorylation of Histone 3 at Ser10 (aurora-B kinase): not affected
- pIC50 (IMR 90 cells): < 4.40
- pIC50 (RPE-MBC cells [2]; Homo sapiens, 72 h): 5.05
- change of IC50 after overexpression of oncogenic factors [4]: all declined, with the exception of RPE MA
- change of IC50 after overexpression of oncogenes [5]: increased in the Rat1 A MYC cell line

SMILES: CN(C)c1ccc(C(=O)c2ccc(N(C)C)cc2)cc1 [MK, Michael's ketone, reference compound]
- pIC50 (Rat1A cells; Rat1A, treatment 72 h, read-out: IC50): 5.78
- pIC50 (3T3 MEF cells; [7]): 5.46
- pIC50 (RPE-MBH cells; [8]): 6.52
- pIC50 (RPE-A19 cells; [9]): 7.06
- pIC50 (RPE-Neo cells; RPE-Neo, treatment 72 h, read-out: IC50): 6.09
- pIC50 (RPE-MBC cells [2]; RPE-MBC, treatment 72 h, read-out: IC50): 6.68

SMILES: CN1CCc2cc3c(cc2C(=O)Cc2ccc4c(c2C1)OCO4)OCO3 [protopine, 7-Methyl-6,8,9,16-tetrahydrobis[1,3]benzodioxolo[4,5-c:5′,6′-g]azecin-15(7H)-one]
- mitotic arrest (RPE-MBC cells [1]): Nearly all cells entered and arrested in mitosis
- polyploidy (DAPI staining) (RPE-MBC cells [1]): Polyploidy was observed
- persistence of the arrest of cells in mitosis (RPE-MBC cells [1]): transient

SMILES: CC(=O)O[C@H]1C(=O)[C@@]2(C)[C@H]([C@H](OC(=O)c3ccccc3)[C@]3(O)C[C@H](OC(=O)[C@H](O)[C@@H](NC(=O)c4ccccc4)c4ccccc4)C(C)=C1C3(C)C)[C@]1(OC(C)=O)CO[C@@H]1C[C@@H]2O [Taxol, paclitaxel]
- pIC50 (3T3 MEF cells; [7]): 7.21 and 7.02
- pIC50 (3T3 MEF cells; Mus musculus, MEF, 72 h, 3T3 MEF, treatment 72 h, read-out: IC50): 7.12
- pIC50 [6]: > 7.70
- pIC50 ([3]; across all of the cell lines tested (FIG. 9), MTT at 72 h or 96 h, read-out: IC50): > 7.70
- pIC50 (RPE-MBH cells; Homo sapiens, 72 h, RPE-MBH, treatment 72 h, read-out: IC50): 4.50
- pIC50 (RPE-MBH cells; [8]): 4.66 and 4.64
- pIC50 (RPE-A19 cells; Homo sapiens, 72 h, RPE-A19, treatment 72 h, read-out: IC50): 4.87
- pIC50 (RPE-A19 cells; [9]): 4.80 and 4.89
- polyploidy (DAPI staining) (RPE-MBC cells [1]): without causing accumulation of polyploid cells
- persistence of the arrest of cells in mitosis (RPE-MBC cells [1]): persistent arrest of cells in mitosis
- pIC50 (IMR 90 cells; IMR 90, treatment 72 h, read-out: IC50): 5.16
- pIC50 (RPE-MBC cells [2]; Homo sapiens, RPE-MBC, treatment 72 h, read-out: IC50): < 4.40

SMILES: CC[C@]1(O)C[C@@H]2CN(CCc3c([nH]c4ccccc34)[C@@](C(=O)OC)(c3cc4c(cc3OC)N(C)[C@H]3[C@@](O)(C(=O)OC)[C@H](OC(C)=O)[C@]5(CC)C=CCN6CC[C@]43[C@@H]65)C2)C1 [vinblastine, reference compound]
- polyploidy (DAPI staining) (RPE-MBC cells [1]): without causing accumulation of polyploid cells
- persistence of the arrest of cells in mitosis (RPE-MBC cells [1]): persistent arrest of cells in mitosis
